We go through 26 compounds from patent US10689408B2, “Bisphosphonic acid compound” (FUJIYAKUHIN CO., LTD., priority 2016, dated 2020).

For assay [1], the system named is Vitamin D3-Induced Vascular Calcification Rat Model. In words: Ectopic calcification inhibitory effect in vitamin D3-induced vascular calcification rat model (amount of aortic phosphorus). Format: in vivo, Male Wistar/ST rats. Conditions: 336 h, oral, once a day for 2 weeks, aortic phosphorus relative to control (vehicle), read-out: Rate of inhibition (%) of ectopic calcification. The text has this: Test Example: Ectopic Calcification Inhibitory Effect in Vitamin D3-Induced Vascular Calcification Rat Model
Male Wistar/ST rats were grouped according to their body weights as an index (6 individuals per group). Cholecalciferol (Wako Pure Chemical Industries, Ltd.) was subcutaneously administered at repeated doses of 125,000 IU/kg to each rat for 3 days to induce vascular calcification. Each test substance was orally administered at repeated doses once a day for 2 weeks from the day of administration of cholecalciferol. The rats were fasted from approximately 6 hours before the administration of the test substance to approximately 2 hours thereafter. On the day following the final administration, total blood was collected from the descending aorta of each rat under isoflurane anesthesia, and then, the aorta from the aortic root to the posterior limb bifurcation was excised. The aorta was chopped, then homogenized after adding 5 mL of 1 N hydrochloric acid and left at room temperature for 1 hour. After centrifugation at 15,000 rpm at 4° C. for 15 minutes, the obtained supernatant was used as a measurement sample. The amount of phosphorus in the measurement sample was measured using Phospha C-Test Wako (Wako Pure Chemical Industries, Ltd.) and used as an index for calcification. An average value of the amounts of aortic phosphorus in each group was determined to calculate the rate of inhibition of calcification by the administration of the test substance relative to a control (vehicle administration) (Table 7).

In assay [2] the test system is calcification in the aorta. Conditions: dialysis patients; cited from earlier work.
Assay [3] has as its system carotid artery intima-media thicknesses. Conditions: type 2 diabetic patients; cited from earlier work.

For the compound `C[C@H]1CC[C@@H](CC(O)(P(=O)(O)O)P(=O)(O)O)C1` (relative stereo) [Example 16, Disodium {1-hydroxy-2-[(1R*,3S*)-3-methylcyclopentyl]ethane-1,1-diyl}bisphosphonate], the inhibition in vivo at 5 mg/kg in assay [1] stood at 75%.

As for `C[C@H]1CC[C@H](CC(O)(P(=O)(O)O)P(=O)(O)O)C1` (relative stereo) [Example 17, Disodium {1-hydroxy-2-[(1R*,3R*)-3-methylcyclopentyl]ethane-1,1-diyl}bisphosphonate], in assay [1], the inhibition in vivo at 5 mg/kg worked out at 80%.

On to `O=P(O)(O)C(O)(C[C@@H]1CC[C@@H](F)C1)P(=O)(O)O` (relative stereo) [Example 18, Disodium {2-[(1R*,3R*)-3-fluorocyclopentyl]-1-hydroxyethane-1,1-diyl}bisphosphonate], for which the inhibition in vivo at 5 mg/kg in assay [1] turned out to be 53%. The same measure, in the same setting: the result for `O=P(O)(O)C(O)(C[C@@H]1CC[C@@H](Oc2ccccc2)C1)P(=O)(O)O` (relative stereo) [Example 20, Disodium {1-hydroxy-2-[(1R*,3R*)-3-phenoxycyclopentyl]ethane-1,1-diyl}bisphosphonate] reads 46%. For the compound `CC(C1CCC1)C(O)(P(=O)(O)O)P(=O)(O)O` (stereo not drawn) [Example 3, Disodium (2-cyclobutyl-1-hydroxypropane-1,1-diyl)bisphosphonate], the inhibition in vivo at 10 mg/kg in assay [1] turned out to be 64%. With `CC1(CC(O)(P(=O)(O)O)P(=O)(O)O)CCC1` [Example 4, Disodium [1-hydroxy-2-(1-methylcyclobutyl)ethane-1,1-diyl]bisphosphonate], the inhibition in vivo at 5 mg/kg in assay [1] was found to be 39%. As to `O=P(O)(O)C(O)(CC1CCCC1)P(=O)(O)O` [Example 6, Disodium (2-cyclopentyl-1-hydroxyethane-1,1-diyl)bisphosphonate], the inhibition in vivo at 30 mg/kg in assay [1] turned out to be 95%. For the compound `O=P(O)(O)C(O)(C=C1CCCC1)P(=O)(O)O` [Example 7, Disodium (2-cyclopentylidene-1-hydroxyethane-1,1-diyl)bisphosphonate], the inhibition in vivo at 5 mg/kg in assay [1] turned out to be 51%. As for `CC(C1CCCC1)C(O)(P(=O)(O)O)P(=O)(O)O` (stereo not drawn) [Example 8, Disodium (2-cyclopentyl-1-hydroxypropane-1,1-diyl)bisphosphonate], in assay [1], the inhibition in vivo at 3 mg/kg was 22%. As to `CC1(CC(O)(P(=O)(O)O)P(=O)(O)O)CCCC1` [Example 11, Disodium [1-hydroxy-2-(1-methylcyclopentyl)ethane-1,1-diyl]bisphosphonate], the inhibition in vivo at 5 mg/kg in assay [1] was found to be 57%. For the compound `CCC1(CC(O)(P(=O)(O)O)P(=O)(O)O)CCCC1` [Example 12, Disodium [2-(1-ethylcyclopentyl)-1-hydroxyethane-1,1-diyl]bisphosphonate], the inhibition in vivo at 5 mg/kg in assay [1] amounted to 28%. On to `CCCC1(CC(O)(P(=O)(O)O)P(=O)(O)O)CCCC1` [Example 13, Disodium [1-hydroxy-2-(1-propylcyclopentyl)ethane-1,1-diyl]bisphosphonate], for which, in assay [1], the inhibition in vivo at 5 mg/kg was 53%. `CC1CCCC1CC(O)(P(=O)(O)O)P(=O)(O)O` (stereo not drawn) [Example 14, Disodium [1-hydroxy-2-(2-methylcyclopentyl)ethane-1,1-diyl]bisphosphonate]: the inhibition in vivo at 5 mg/kg in assay [1] came out at 29%. The same measure, in the same setting: the value for `CC1CCC(CC(O)(P(=O)(O)O)P(=O)(O)O)C1` (stereo not drawn) [Example 15, Disodium [1-hydroxy-2-(3-methylcyclopentyl)ethane-1,1-diyl]bisphosphonate] was 87%. For the compound `CC1(C)CCC(CC(O)(P(=O)(O)O)P(=O)(O)O)C1` (stereo not drawn) [Example 21, Disodium [2-(3,3-dimethylcyclopentyl)-1-hydroxyethane-1,1-diyl]bisphosphonate], the inhibition in vivo at 5 mg/kg in assay [1] amounted to 68%. With `O=P(O)(O)C(O)(CC1CCC(F)(F)C1)P(=O)(O)O` (stereo not drawn) [Example 23, Disodium [2-(3,3-difluorocyclopentyl)-1-hydroxyethane-1,1-diyl]bisphosphonate], in assay [1], the inhibition in vivo at 5 mg/kg is 43%.

`C[C@@H]1C[C@H](CC(O)(P(=O)(O)O)P(=O)(O)O)C[C@@H]1C` [Example 24, Disodium {2-[(1r,3R,4S)-3,4-dimethylcyclopentyl]-1-hydroxyethane-1,1-diyl}bisphosphonate]: the inhibition in vivo at 5 mg/kg in assay [1] came out at 93%.

For the compound `C[C@@H]1C[C@@H](CC(O)(P(=O)(O)O)P(=O)(O)O)C[C@@H]1C` [Example 25, Disodium {2-[(1s,3R,4S)-3,4-dimethylcyclopentyl]-1-hydroxyethane-1,1-diyl}bisphosphonate], the inhibition in vivo at 5 mg/kg in assay [1] was 64%.

As to `CC1(C)CC(CC(O)(P(=O)(O)O)P(=O)(O)O)CC1(C)C` [Example 26, Disodium [1-hydroxy-2-(3,3,4,4-tetramethylcyclopentyl)ethane-1,1-diyl]bisphosphonate], the inhibition in vivo at 5 mg/kg in assay [1] was 66%.

For the compound `O=P(O)(O)C(O)(CC1CCCCC1)P(=O)(O)O` [Example 27, Disodium (2-cyclohexyl-1-hydroxyethane-1,1-diyl)bisphosphonate], the inhibition in vivo at 5 mg/kg in assay [1] was 82%. As to `CC(C1CCCCC1)C(O)(P(=O)(O)O)P(=O)(O)O` (stereo not drawn) [Example 28, Disodium (2-cyclohexyl-1-hydroxypropane-1,1-diyl)bisphosphonate], the inhibition in vivo at 30 mg/kg in assay [1] worked out at 95%. For `CC1(CC(O)(P(=O)(O)O)P(=O)(O)O)CCCCC1` [Example 30, Disodium [1-hydroxy-2-(1-methylcyclohexyl)ethane-1,1-diyl]bisphosphonate], the inhibition in vivo at 5 mg/kg in assay [1] was determined as 47%. Turning to `O=P(O)(O)C(O)(CC1CC2CCC1C2)P(=O)(O)O` (stereo not drawn) [Example 31, Disodium [2-(bicyclo[2.2.1]heptan-2-yl)-1-hydroxyethane-1,1-diyl]bisphosphonate], the inhibition in vivo at 3 mg/kg in assay [1] turned out to be 29%. `CC1(C)CC(CC(O)(P(=O)(O)O)P(=O)(O)O)CC(C)(C)C1` [Example 35, Disodium [1-hydroxy-2-(3,3,5,5-tetramethylcyclohexyl)ethane-1,1-diyl]bisphosphonate]: the inhibition in vivo at 5 mg/kg in assay [1] was 71%. As to `O=P(O)(O)C(O)(CC1CCCCCC1)P(=O)(O)O` [Example 44, Disodium (2-cycloheptyl-1-hydroxyethane-1,1-diyl)bisphosphonate], in assay [1], the inhibition in vivo at 10 mg/kg was 95%.

As for `CC(O)(P(=O)(O)O)P(=O)(O)O` [etidronate, Etidronate], the “inhibition of calcification in the aorta” value in assay [2] was “significantly inhibit calcification in the aorta”. The “carotid artery intima-media thickness” value in assay [3] was “significantly decrease the carotid artery intima-media thicknesses”.
